Where a name gives a salt, the structure may show the parent alone. Read-outs that look alike come from different tables or passages of the source. Marks after values point to notes of the source that are not given here.
Key:
[1] = target: GTP-KRAS-G12D:SOS1 (Homo sapiens (Human), UniProt P01116, G12D); assay: GTP-KRAS-G12D:SOS1 binding inhibition
Experimental: (§1) The IC50 of the compounds was fitted using a nonlinear regression equation with GraphPad Prism 8. The results are presented in Table 2: • Negative control: DMSO • Positive control: 100 μM BI-2852
(§2) The following nonlinear fitting formula was used to obtain the IC50 (half-maximal inhibitory concentration) of the compounds:
(§3) [formula] • X: logarithm of the compound concentration • Y: 665/615 Ratio

[2] = In vivo bioavailability experiment in mice (pharmacokinetics); conditions: ICR mice; for clearance / half-life / MRT / Vd / bioavailability: mouse, plasma; for MRT: read-out: Mean residence time; for Vd: read-out: Steady-state volume of distribution
Experimental: Experimental Animals: ICR mice, weighing 20 grams, provided by Sino-British SIPPR Lab Animal Ltd, Shanghai. The compound to be tested was accurately weighed and dissolved in DMSO to prepare a stock solution with a concentration of 15 mg/mL. The compound stock solution was accurately measured and diluted with 0.9% saline and Solutol in a ratio of 8.8:1 to a concentration of 0.3 mg/mL. The solution was clear and transparent, used for intravenous administration. Additionally, the compound was accurately weighed and mixed with 0.5% CMC-Na to a concentration of 0.5 mg/mL, used for oral gavage administration. Intravenous group: Three ICR mice, weighing 20 g+2 g, were intravenously administered the intravenous dosing solution. The dosing volume was 10 mL/kg, with a dose of 3 mg/kg. Blood samples (0.03 mL) were collected from the fundus vein of the mice at pre-dose and at 2, 15, 30, 60, 120, 240, 480, and 1440 minutes post-dose. Oral gavage group: Three ICR mice, weighing 20 g+2 g, were administered the oral gavage dosing solution. The dosing volume was 20 mL/kg, with doses of 10 mg/kg and 30 mg/kg. Blood samples (0.03 mL) were collected from the fundus vein of the mice at pre-dose and at 5, 15, 30, 60, 120, 240, 480, and 1440 minutes post-dose. The blood samples were centrifuged at 6800 g for 6 minutes at 2-8° C. The plasma was collected and stored in centrifuge tubes at -70° C. for later analysis. A 19 μL aliquot of blank mouse plasma was taken, and 1 μL of the standard curve working solution was added to prepare a series of concentration samples at 1, 0.5, 0.2, 0.1, 0.05, 0.01, 0.005, and 0.001 μg/mL. The mixture was vortexed and mixed well, and 400 μL of methanol containing an internal standard (Warfarin, 100 ng/mL) was added to precipitate the proteins. The mixture was vortexed and shaken for 1 minute, centrifuged at 18000 g for 7 minutes at 4° C., and the supernatant was transferred to a 96-well plate for injection. A 20 μL aliquot of the plasma sample was mixed with 400 μL of methanol containing an internal standard (Warfarin, 100 ng/mL) to precipitate the proteins. The mixture was vortexed for 10 minutes, centrifuged at 18000 g for 7 minutes at 4° C., and 400 μL of the supernatant was transferred to a 96-well plate for a 10 μL injection. Liquid chromatography system: Acquity UPLC system (including a binary solvent manager, sample manager, column heater, and degasser) from Waters Corporation, USA. MS/MS system: QTRAP® 6500+ triple quadrupole mass spectrometer equipped with an electrospray ionization (ESI) source from Sciex Corporation, USA. Analytical column: BEH C18 column, 1.7 μm, 50×2.1 mm I.D., from Waters Corporation, USA. Flow rate: 0.60 mL/min; injection volume: 10 μL; column temperature: 40° C. The gradient elution program used was as follows: The ion source was an electrospray ionization source (Turbo Ionspray, ESI); the ion spray voltage was […]; the temperature was 500° C.; the ion source gas 1 (N2) pressure was 50 psi; the ion source gas 2 (N2) pressure was 50 psi; the curtain gas (N2) pressure was 20 psi; the collision gas pressure (CAD) was Medium; detection was performed in positive ion mode; the scan type was multiple reaction monitoring (MRM).

[3] = target: GTP-KRAS-G12D:CRAF (Homo sapiens (Human), UniProt P01116, G12D); assay: GTP-KRAS-G12D:CRAF binding inhibition
GTP-KRAS-G12D:CRAF, sequence (P01116-2 other isoform, or with tags, fused parts or gaps G12D): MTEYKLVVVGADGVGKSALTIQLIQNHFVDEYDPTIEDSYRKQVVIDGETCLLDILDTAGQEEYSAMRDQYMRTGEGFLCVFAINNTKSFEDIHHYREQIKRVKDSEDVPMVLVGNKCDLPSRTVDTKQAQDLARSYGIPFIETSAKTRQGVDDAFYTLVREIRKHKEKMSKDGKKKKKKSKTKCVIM
Experimental: The IC50 of the compounds was fitted using a nonlinear regression equation with GraphPad Prism 8. The results are presented in Table 2: • Negative control: DMSO • Positive control: 100 μM BI-2852 The following nonlinear fitting formula was used to obtain the IC50 (half-maximal inhibitory concentration) of the compounds: [formula] • X: logarithm of the compound concentration • Y: 665/615 Ratio

[4] = target: GTP-KRAS-WT:SOS1 (Homo sapiens (Human), UniProt P01116); assay: KRAS_WT and SOS1 binding inhibition (KRAS-WT/SOS1 binding kit, 665/615 ratio); conditions: GTP 10 μM
GTP-KRAS-WT:SOS1, sequence (P01116-2 other isoform, or with tags, fused parts or gaps): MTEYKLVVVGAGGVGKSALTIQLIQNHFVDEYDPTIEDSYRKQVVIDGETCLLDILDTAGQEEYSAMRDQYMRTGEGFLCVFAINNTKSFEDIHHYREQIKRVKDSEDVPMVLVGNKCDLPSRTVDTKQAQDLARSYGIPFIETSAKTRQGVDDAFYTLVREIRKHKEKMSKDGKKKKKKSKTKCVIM
From the text: To detect the inhibitory capability of small molecule compounds on the binding activity between KRAS_WT and SOS1 using a drug screening system based on the binding of KRAS_WT and SOS1 interaction.
a) BI-2852 was used as a positive control, with its stock solution as the first dilution point, followed by a 3-fold dilution, making a total of 10+0 dilutions. Similarly, the first dilution point of the test compounds was also their respective stock solutions, followed by a 3-fold dilution, making a total of 11+0 dilutions. Using Echo, 0.2 μL of the gradient-diluted compound solutions were transferred into a 384-well plate, with each compound tested in duplicate. The final DMSO concentration was 1%. The plate was centrifuged at 1000 rpm for 1 minute. The final concentrations of the positive controls were 100, 33.33, 11.11, 3.70, 1.23, 0.412, 0.137, 0.046, 0.015, 0.005, and 0 μM. The final concentrations of the test compounds were […], 0.01, and 0 μM.
b) KRAS_WT from the kit was prepared with GTP at a final concentration of 10 μM in the dilution buffer, and 5 μL was transferred into the 384-well reaction plate. The plate was centrifuged at 1000 rpm for 1 minute.
c) Subsequently, 5 μL of the SOS1 mixture was transferred into the 384-well reaction plate. The plate was centrifuged at 1000 rpm for 1 minute and incubated at 25° C. for 15 minutes.
d) 10 μL of the detection mixture was transferred into the 384-well reaction plate. The plate was centrifuged at 1000 rpm for 1 minute and incubated overnight at 4° C.
e) The […] and emission wavelength at 615 nm were read using an Envision multimode plate reader. The 665/615 ratio signal intensity was used to characterize the enzyme activity.
as §1, §2, §3

[5] = intravenous injection, dose 3 (3 mg/kg in method)
[6] = oral, dose 30 (30 mg/kg in method)

GTP-KRAS-G12D:SOS1, sequence (P01116-2 other isoform, or with tags, fused parts or gaps G12D): as the sequence (P01116-2 other isoform, or with tags, fused parts or gaps G12D) above

Row | Compound | IC50 [3] [nM] | IC50 [4] [nM] | IC50 ([3]; dihydrochloride) [nM] | IC50 ([1]; dihydrochloride) [nM] | IC50 ([4]; dihydrochloride) [nM] | IC50 [1] [nM] | Area under curve [2, 5] | Maximum plasma concentration [2, 5] [ng/mL] | Area under curve [2, 6] | Maximum plasma concentration [2, 6] [ng/mL] | clearance [2, 5] [mL/min/kg] | half-life [2, 5] [h] | MRT [2, 5] [h] | Vd [2, 5] [L/kg] | bioavailability [2, 6] [%] | half-life [2, 6] [h] | MRT [2, 6] [h]
1 | CCc1cccc2cc(O)cc(-c3c(F)c4c5c(nc(OC[C@@]67CCCN6C[C@H](F)C7)nc5c3F)N3CC5CCC(N5)C3CCO4)c12 (single isomer, unassigned) [13a′, 4-((2S or 2R,6aS,7S,10R)-1,3-Difluoro-14-(((2R,7aS)-2-fluorotetrahydro-1H-pyrrolizin-7a(5H)-yl)methoxy)-5,6,6a,7,8,9,10,11-octahydro-7,10-epiminoazepino[1′,2′: 5,6][1,5]oxazocino[4,3,2-de]quinazolin-2-yl)-5-ethylnaphthalen-2-ol] |  |  |  |  |  | 28.2 | 2062.35 (h) * (ng/mL) | 3563.93 | 3091.66 (h) * (ng/mL) | 781.43 | 6.5 | 15.9 | 4.73 | 5.33 | 15 | 4.68 | 4.53
2 | F[C@H]1CN2CCC[C@@]2(COc2nc3c(c(N4CC5CCC(C4)N5)n2)CCC2(CCc4c(Cl)cccc42)C3)C1 (single isomer, unassigned) [Compound 1a, (S or R)-4′-((1R,5S)-3,8-Diazabicyclo[3.2.1]octan-3-yl)-4-chloro-2′-((2R,7aS)-2-fluorotetrahydro-1H-pyrrolizin-7a(5H)-ylmethoxy)-2,3,5′,8′-tetrahydro-6′H-spiro[indene-1,7′-quinazoline]dihydrochloride] | 333 | 4100 |  |  |  | 45.6 |  |  |  |  |  |  |  |  |  |  | 
3 | CCc1cccc2cc(O)cc(-c3c(F)c4c5c(nc(OC[C@]67C[C@@H](F)CN6C[C@@H](COC)C7)nc5c3F)N3CC5CCC(N5)C3CO4)c12 (single isomer, unassigned) [Compound 18b, 4-((2S or 2R,5aS,6S,9R)-1,3-difluoro-13-(((2R,6S,7aS)-2-fluoro-6-(methoxymethyl)tetrahydro-1H-pyrrolizin-7a(5H)-yl)methoxy)-5a,6,7,8,9,10-hexahydro-5H-6,9-epiminoazepino[2′,1′:3,4][1,4]oxazepino[5,6,7-de]quinazolin-2-yl)-5-ethylnaphthalen-2-ol dihydrochloride] |  |  |  |  |  | 7.5 | 1944.73 (h) * (ng/mL) | 7632.72 | 1904.95 (h) * (ng/mL) | 508.76 | 24.5 | 11.8 | 1.41 | 4.98 | 9.8 | 3.57 | 3.77
4 | CCc1cccc2cc(O)cc(-c3c(F)c4c5c(nc(OC[C@]67C[C@@H](F)CN6C[C@@H](CN6C[C@@H](C)O[C@@H](C)C6)C7)nc5c3F)N3CC5CCC(N5)C3CO4)c12 (single isomer, unassigned) [Compound 25b, 4-((2S or 2R)-13-(((2R,6R,7aS)-2-(((2R,6S)-2,6-dimethylmorpholino)methyl)-6-fluorotetrahydro-1H-pyrrolizin-7a(5H)-yl)methoxy)-1,3-difluoro-5a,6,7,8,9,10-hexahydro-5H-6,9-epiminoazepino[2′,1′:3,4][1,4]oxazepino[5,6,7-de]quinazolin-2-yl)-5-ethylnaphthalen-2-ol trihydrochloride] |  |  |  |  |  | 6.72 | 7940.26 (h) * (ng/mL) | 22039.3 | 2365.19 (h) * (ng/mL) | 863.75 | 6.33 | 12.2 | 1.01 | 0.84 | 2.98 | 3.81 | 3.15

Second part, led by results:

Row | IC50 [3] [nM] | IC50 [4] [nM] | IC50 ([3]; dihydrochloride) [nM] | IC50 ([1]; dihydrochloride) [nM] | IC50 ([4]; dihydrochloride) [nM] | Compound | IC50 [1] [nM] | Area under curve [2, 5] | Maximum plasma concentration [2, 5] [ng/mL] | Area under curve [2, 6] | Maximum plasma concentration [2, 6] [ng/mL] | clearance [2, 5] [mL/min/kg] | half-life [2, 5] [h] | MRT [2, 5] [h] | Vd [2, 5] [L/kg] | bioavailability [2, 6] [%] | half-life [2, 6] [h] | MRT [2, 6] [h]
5 | 32.5 | 254 |  |  |  | Oc1cc(Cl)c2c(c1)C1(CC2)CCc2c(nc(OC[C@@]34CCCN3C[C@H](F)C4)nc2N2CC3CCC(C2)N3)C1 (single isomer, unassigned) [Compound 2a, (S or R)-4′-((1R,5S)-3,8-Diazabicyclo[3.2.1]octan-3-yl)-4-chloro-2′-((2R,7aS)-2-fluorotetrahydro-1H-pyrrolizin-7a(5H)-ylmethoxy)-2,3,5′,8′-tetrahydro-6′H-spiro[indene-1,7′-quinazolin]-6-ol dihydrochloride] | 16.7 |  |  |  |  |  |  |  |  |  |  | 
6 | 24 | 246 |  |  |  | CC1CC2(CCc3c(nc(OC[C@@]45CCCN4C[C@H](F)C5)nc3N3CC4CCC(C3)N4)C2)c2cc(O)cc(Cl)c21 (single isomer, unassigned) [Compound 7a, (1R or 1S)-4′-((1R,5S)-3,8-Diazabicyclo[3.2.1]octan-3-yl)-4-chloro-2′-(((2R,7aS)-2-fluorotetrahydro-1H-pyrrolizin-7a(5H)-yl)methoxy)-3-methyl-2,3,5′,8′-tetrahydro-6′H-spiro[indene-1,7′-quinazolin]-6-ol dihydrochloride] | 21.5 |  |  |  |  |  |  |  |  |  |  | 
7 |  |  | 16.4 | 9.95 | 233 | CC1CC2(CCc3c(nc(OC[C@@]45CCCN4C[C@H](F)C5)nc3N3C[C@H]4CC[C@@H](C3)N4)C2)c2cc(O)cc(Cl)c21 (single isomer, unassigned) [Compound 7aa, (1R or 1S, 3R or 3S)-4′-((1R,5S)-3,8-diazabicyclo[3.2.1]octan-3-yl)-4-chloro-2′-(((2R,7aS)-2-fluorotetrahydro-1H-pyrrolizin-7a(5H)-yl)methoxy)-3-methyl-2,3,5′,8′-tetrahydro-6′H-spiro[indene-1,7′-quinazolin]-6-ol dihydrochloride] |  |  |  |  |  |  |  |  |  |  |  | 
